Tested on: 648629-189-R-J1-PDC spheroids with HUVEC/MSC, viability
Test: Anticancer human tumor 648629-189-R-J1-PDC patient-derived bladder carcinoma cell line growth inhibition [PI3K]
Conditions: for viability, T/C: stronger effect = lower value
In short: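 Tumor cells were combined with HUVEC and MSCs into spheroids, then dosed with PI3K-inhibitor combinations over half-log ranges capped near clinical Cmax or 10 microM.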

[1] = curve of first compound, second compound 0.0316 µM
[2] = curve of first compound, second compound 0.1 µM
[3] = curve of first compound, second compound 0.316 µM
[4] = curve of first compound, second compound 1 µM
[5] = curve of first compound, second compound 3.16 µM
[6] = curve of first compound, second compound 10 µM
[7] = second compound 0.0316 µM, first compound 0.0316 µM
[8] = second compound 0.0316 µM, first compound 0.1 µM
[9] = second compound 0.1 µM, first compound 0.0316 µM
[10] = second compound 0.1 µM, first compound 0.1 µM
[11] = second compound 0.316 µM, first compound 0.0316 µM
[12] = second compound 0.316 µM, first compound 0.1 µM
[13] = second compound 1 µM, first compound 0.0316 µM
[14] = second compound 1 µM, first compound 0.1 µM
[15] = second compound 3.16 µM, first compound 0.0316 µM
[16] = second compound 3.16 µM, first compound 0.1 µM
[17] = second compound 10 µM, first compound 0.0316 µM
[18] = second compound 10 µM, first compound 0.1 µM
[19] = second compound 0.0316 µM, first compound 0.316 µM
[20] = second compound 0.0316 µM, first compound 1 µM
[21] = second compound 0.0316 µM, first compound 3.16 µM
[22] = second compound 0.0316 µM, first compound 10 µM
[23] = second compound 0.1 µM, first compound 0.316 µM
[24] = second compound 0.1 µM, first compound 1 µM
[25] = second compound 0.1 µM, first compound 3.16 µM
[26] = second compound 0.1 µM, first compound 10 µM
[27] = second compound 0.316 µM, first compound 0.316 µM
[28] = second compound 0.316 µM, first compound 1 µM
[29] = second compound 0.316 µM, first compound 3.16 µM
[30] = second compound 0.316 µM, first compound 10 µM
[31] = second compound 1 µM, first compound 0.316 µM
[32] = second compound 1 µM, first compound 1 µM
[33] = second compound 1 µM, first compound 3.16 µM
[34] = second compound 1 µM, first compound 10 µM
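Further: spheroids exposed to agents for seven days before reading.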
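Wherever viability, T/C is given: percent of vehicle control luminescence where 100% = DMSO treated spheroids.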

CC(C)n1nc(-c2ccc3oc(N)nc3c2)c2c(N)ncnc21 + CC(Nc1ncnc2nc[nH]c12)c1cc2cccc(Cl)c2c(=O)n1-c1ccccc1
IC50 [1]: 73 nM | IC50 [2]: 63.8 nM | IC50 [3]: 62.6 nM | IC50 [4]: 61.5 nM | IC50 [5]: 55.8 nM | IC50 [6]: 32.1 nM | viability, T/C (second compound 0.0316 µM, first compound 0.000316 µM): 93.2% | viability, T/C (second compound 0.0316 µM, first compound 0.001 µM): 96.1% | viability, T/C (second compound 0.0316 µM, first compound 0.00316 µM): 87.9% | viability, T/C (second compound 0.0316 µM, first compound 0.01 µM): 85.4% | viability, T/C [7]: 85.8% | viability, T/C [8]: 36.5% | viability, T/C (second compound 0.1 µM, first compound 0.000316 µM): 101% | viability, T/C (second compound 0.1 µM, first compound 0.001 µM): 86.5% | viability, T/C (second compound 0.1 µM, first compound 0.00316 µM): 101% | viability, T/C (second compound 0.1 µM, first compound 0.01 µM): 97.7% | viability, T/C [9]: 69.5% | viability, T/C [10]: 37.5% | viability, T/C (second compound 0.316 µM, first compound 0.000316 µM): 99.5% | viability, T/C (second compound 0.316 µM, first compound 0.001 µM): 107% | viability, T/C (second compound 0.316 µM, first compound 0.00316 µM): 104% | viability, T/C (second compound 0.316 µM, first compound 0.01 µM): 85.8% | viability, T/C [11]: 73.8% | viability, T/C [12]: 34.7% | viability, T/C (second compound 1 µM, first compound 0.000316 µM): 104% | viability, T/C (second compound 1 µM, first compound 0.001 µM): 89.6% | viability, T/C (second compound 1 µM, first compound 0.00316 µM): 101% | viability, T/C (second compound 1 µM, first compound 0.01 µM): 85.6% | viability, T/C [13]: 68.8% | viability, T/C [14]: 36.5% | viability, T/C (second compound 3.16 µM, first compound 0.000316 µM): 85.8% | viability, T/C (second compound 3.16 µM, first compound 0.001 µM): 103% | viability, T/C (second compound 3.16 µM, first compound 0.00316 µM): 91.4% | viability, T/C (second compound 3.16 µM, first compound 0.01 µM): 84.6% | viability, T/C [15]: 66.1% | viability, T/C [16]: 33.8% | viability, T/C (second compound 10 µM, first compound 0.000316 µM): 83.1% | viability, T/C (second compound 10 µM, first compound 0.001 µM): 87.1% | viability, T/C (second compound 10 µM, first compound 0.00316 µM): 81.4% | viability, T/C (second compound 10 µM, first compound 0.01 µM): 72.3% | viability, T/C [17]: 50.4% | viability, T/C [18]: 30.3%

CC(Cn1ccc(-c2ccc(C#N)c(Cl)c2)n1)NC(=O)c1cc(C(C)O)[nH]n1 (stereo not drawn) + COc1c(OCCCN2CCOCC2)ccc2c3n(c(=NC(=O)c4cnc(N)nc4)nc12)CCN3
IC50 (curve of first compound, second compound 0.00316 µM): > 10000 nM | IC50 (curve of first compound, second compound 0.01 µM): > 10000 nM | IC50 [1]: > 10000 nM | IC50 [2]: > 10000 nM | IC50 [3]: < 31.6 nM | IC50 [4]: < 31.6 nM | viability, T/C (second compound 0.00316 µM, first compound 0.0316 µM): 94.9% | viability, T/C (second compound 0.00316 µM, first compound 0.1 µM): 92.4% | viability, T/C (second compound 0.00316 µM, first compound 0.316 µM): 97.9% | viability, T/C (second compound 0.00316 µM, first compound 1 µM): 96.4% | viability, T/C (second compound 0.00316 µM, first compound 3.16 µM): 83.8% | viability, T/C (second compound 0.00316 µM, first compound 10 µM): 73.9% | viability, T/C (second compound 0.01 µM, first compound 0.0316 µM): 100% | viability, T/C (second compound 0.01 µM, first compound 0.1 µM): 105% | viability, T/C (second compound 0.01 µM, first compound 0.316 µM): 102% | viability, T/C (second compound 0.01 µM, first compound 1 µM): 92.7% | viability, T/C (second compound 0.01 µM, first compound 3.16 µM): 89.1% | viability, T/C (second compound 0.01 µM, first compound 10 µM): 74.3% | viability, T/C [7]: 96.5% | viability, T/C [8]: 93.5% | viability, T/C [19]: 95.8% | viability, T/C [20]: 90.4% | viability, T/C [21]: 86.5% | viability, T/C [22]: 70.8% | viability, T/C [9]: 65.9% | viability, T/C [10]: 64.1% | viability, T/C [23]: 77.5% | viability, T/C [24]: 65.5% | viability, T/C [25]: 64% | viability, T/C [26]: 61.5% | viability, T/C [11]: 23% | viability, T/C [12]: 18.7% | viability, T/C [27]: 22.9% | viability, T/C [28]: 23.2% | viability, T/C [29]: 26.4% | viability, T/C [30]: 21.3% | viability, T/C [13]: 3.56% | viability, T/C [14]: 3.29% | viability, T/C [31]: 3.07% | viability, T/C [32]: 3.97% | viability, T/C [33]: 4.94% | viability, T/C [34]: 2.75%

Cn1ncnc1[C@H]1c2n[nH]c(=O)c3cc(F)cc(c23)N[C@@H]1c1ccc(F)cc1
viability, T/C (compound 0.000316 µM): 105% [middle of 4 runs] | viability, T/C (compound 0.001 µM): 105% [middle of 4 runs] | viability, T/C (compound 0.00316 µM): 101% [middle of 4 runs] | viability, T/C (compound 0.01 µM): 92.9% [middle of 4 runs] | viability, T/C (compound 0.0316 µM): 73.1% [middle of 4 runs] | viability, T/C (compound 0.1 µM): 63.2% [middle of 4 runs] | IC50 (curve of compound): > 100 nM

Cn1ncc(Cl)c1-c1cc(C(=O)NC(CN)Cc2cccc(F)c2)sc1Cl (stereo not drawn) + Cc1nc(NC(=O)N2CCCC2C(N)=O)sc1-c1ccnc(C(C)(C)C(F)(F)F)c1
IC50 [1]: 510 nM | IC50 [2]: 405 nM | IC50 [3]: 312 nM | IC50 [4]: 218 nM | IC50 [5]: 75.9 nM | IC50 [6]: < 31.6 nM | viability, T/C [7]: 105% | viability, T/C [8]: 97% | viability, T/C [19]: 55.6% | viability, T/C [20]: 34.7% | viability, T/C [21]: 17.9% | viability, T/C [22]: 2.36% | viability, T/C [9]: 90.8% | viability, T/C [10]: 76.8% | viability, T/C [23]: 56.9% | viability, T/C [24]: 27.6% | viability, T/C [25]: 17.5% | viability, T/C [26]: 1.87% | viability, T/C [11]: 89.6% | viability, T/C [12]: 73.8% | viability, T/C [27]: 48.2% | viability, T/C [28]: 28% | viability, T/C [29]: 15.1% | viability, T/C [30]: 1.73% | viability, T/C [13]: 72.8% | viability, T/C [14]: 66.6% | viability, T/C [31]: 41% | viability, T/C [32]: 23.3% | viability, T/C [33]: 13.6% | viability, T/C [34]: 1.42% | viability, T/C [15]: 55.2% | viability, T/C [16]: 50.3% | viability, T/C (second compound 3.16 µM, first compound 0.316 µM): 34.4% | viability, T/C (second compound 3.16 µM, first compound 1 µM): 20.5% | viability, T/C (second compound 3.16 µM, first compound 3.16 µM): 12.2% | viability, T/C (second compound 3.16 µM, first compound 10 µM): 1.25% | viability, T/C [17]: 36.9% | viability, T/C [18]: 31.7% | viability, T/C (second compound 10 µM, first compound 0.316 µM): 20.4% | viability, T/C (second compound 10 µM, first compound 1 µM): 13.5% | viability, T/C (second compound 10 µM, first compound 3.16 µM): 7.71% | viability, T/C (second compound 10 µM, first compound 10 µM): 0.35%
